Assay results: patent US5985826A, “Methods of using hepatic-directed compounds in pretargeting strategies” (NeoRx Corporation, priority 1997, dated 1999)

Experiments:
[1] = test system: I-125 NR-LU-10-streptavidin conjugate; assay: In vivo pretargeting-format clearance of I-125 NR-LU-10-streptavidin conjugate from circulation; parameters: species or system mice (BALB/c)
Procedure: In a third set of experiments conducted in vivo in the pretargeting format (e.g., administration of radiolabeled MAb-streptavidin conjugate followed by administration of clearing agent), the (galactosyl)8 -LC-biotin conjugate was also compared to galactose-HSA-biotin prepared as described above. This comparison was conducted in a Balb/c mouse model and was for the ability to clear an I-125 labeled monoclonal antibody-streptavidin conjugate (1-125 LU-10-streptavidin) from circulation as a function of time. […] Subsequent experiments have further shown that hepatic-directed compounds containing 16 galactose residues provide for even better clearance than those containing 8 galactose residues.
Having shown that precomplexed material could clear rapidly and efficiently from the blood, experiments were conducted to measure the effectiveness of various doses of-the 16 galactose-biotin construct to form rapidly clearing complexes in vivo. Mice received 400 micrograms of I-125 NR-LU-10streptavidin conjugate intravenously, and approximately 22 hours later received the 16 galactose-biotin construct at doses of 100 50, or 10:1 (456, 228 and 45 micrograms, respectively) molar excess to circulating monoclonal antibody-streptavidin conjugate. […] The larger doses may be sufficiently high to achieve competition between complexed and non-complexed 16-galactose-biotin for liver receptors, thereby precluding all but a small initial fraction of the complexed MAb-streptavidin conjugate from clearing via the liver. Following the plateau period, clearing of the conjugate remained slow and was eventually less complete than that achieve with the lower dose (approximately 10% of the conjugate remained in circulation at the higher doses, in comparison to 2% for the lower dose). […] If the 16 galactose-biotin construct is unstable, sufficient biotin may be released at higher doses to that a significant portion of circulating conjugate became blocked thereby and, consequently, was not cleared via hepatic-mediated uptake.

[2] = test system: SHT-1 small cell lung cancer (SCLC) tumor xenografts; assay: Tumor targeting of Y-90-DOTA-biotin after NR-LU-10-streptavidin and 16 galactose-biotin, SHT-1 SCLC xenograft; format: in vivo, nude mice
Procedure: (§1) Having shown that effective clearing could be achieved with the appropriate does of 16 galactose-biotin construct, studies were undertaken in tumored nude mice to evaluate the potential blockade of tumor-associated conjugate by the small 16 galactose-biotin. Mice bearing either SW-1222 colon tumor xenografts or SHT-1 small cell lung cancer (SCLC) tumor xenografts were pretargeted with NR-LU-10-streptavidin conjugate and, 22 hours later, received 46 micrograms of 16 galactose-biotin. After 2 hours, Y-90-DOTA-biotin prepared as described above was administered, and its uptake and retention in tumor and non-target tissues was evaluated by sacrifice and tissue counting for radioactivity 2 hours post-administration.
(§2) The historical controls were conducted with a 3 hour time period between clearing agent and radioactivity administration.

[3] = Non-target organ uptake of Y-90-DOTA-biotin radioactivity in tumored nude mice; format: in vivo; conditions: vs historical controls
Procedure: as §1, §2

MAb-streptavidin = assay: Relative stoichiometry of In-111 DOTA-biotin to I-125 MAb-streptavidin at the tumor target site; format: in vivo; conditions: I-125 MAb-streptavidin and In-111 DOTA-biotin
Source text: Experiments were. also carried out using I-125 labeled MAb-streptavidin conjugate and In-111 labeled DOTA-biotin to assess the relative stoichiometry of those materials at the tumor target site using 16 galactose-biotin as a clearing agent. […] When a similar protocol was employed with the 16 galactose-biotin construct, the ratio of DOTA-biotin to MAb-streptavidin was only 2.65. […] Experiments to assess the nature of this blockade are underway.

[4] = test system: MAb-streptavidin conjugate; assay: Serum/blood clearance of MAb-streptavidin conjugate with galactose cluster-biotin conjugates (precomplexed ex vivo, or given after the conjugate); format: in vivo, mouse; conditions: precomplexed at 20-fold molar excess; 120 or 12 micrograms i.v.; vs antibody conjugate control; BALB/c female
Procedure: Some or all of these compounds were assayed for their clearance directing activity in two sets of experiments. The first set of experiments involved ex vivo preparation of a precomplexed monoclonal antibody-streptavidin-biotin-galactose cluster conjugate labeled with I-125, intravenous administration of the conjugate in a mouse model, and measuring serum levels of the conjugate over time. The second set of experiments involved intravenous administration of MAb-streptavidin conjugate followed by administration of biotin-galactose cluster conjugate.
NR-LU-10 antibody (MW 150 kD) was conjugated to streptavidin (MW 66 kD) (as described in Example II above), and radiolabeled with ^125 I/PIP-NHS as described below. The antibody component of the conjugate was radioiodinated using p-aryltin phenylate NHS ester (PIP-NHS) and ^125 I sodium iodide. […]
Experiments were designed and executed to evaluate a 16 galactose cluster-biotin construct without the stabilizing tertiary amine structure of the nitrogen of the amide closest to the biotin, the preparation of such a stabilized construct being described above in Example V. BALB/c female mice (20-25 g) were injected i.v. with 120 micrograms of NR-LU-10-streptavidin conjugate radiolabeled with I-125, and blood was serially collected from n=3 mice. The clearance of the conjugate from the blood was measured of these control mice. […]

[5] = test system: SW-1222 colon tumor xenografts; assay: Tumor targeting of Y-90-DOTA-biotin after NR-LU-10-streptavidin and 16 galactose-biotin, SW-1222 colon xenograft; format: in vivo, nude mice
Procedure: as §1, §2

[6] = 46 micrograms, Y-90-DOTA-biotin, vs historical controls with (galactose)35-HSA-(biotin)2
[7] = vs (galactose)35-HSA-(biotin)2 historical controls

SMILES | Efficiency at removing circulating conjugate, lower and higher doses ([1]; 12, 23 and 228 microgram, vs 46 microgram) | Rebound effect, lower doses ([1]; 12 and 23 microgram) | Clearing effectiveness at 46 micrograms vs (galactose)35-HSA-(biotin)2 ([1]; 46 microgram, vs previously optimized dose) | Effectiveness at clearing conjugate, each dose ([1]; 100, 50 or 10:1 molar excess (456, 228 and 45 micrograms), about 22 h after 400 micrograms conjugate) | Optimal clearing dose ([1]; decreasing dose comparison) [microgram] | Conjugate remaining in circulation, higher doses ([1]; higher doses (456 and 228 micrograms; 100:1, 50:1)) | Duration of plateau in conjugate clearance ([1]; larger doses (456, 228 micrograms), after administration of 16 galactose-biotin) | Conjugate remaining in circulation, lower dose ([1]; lower dose (45 micrograms; 10:1)) [%] | Clearing of MAb-streptavidin from the circulation, summary ([1]; vascular and extravascular spaces) | Tumor targeting, low antigen-expressing SCLC xenograft [2, 6] | Tumor uptake of radioactivity, SHT-1, overall assessment [2, 7] | Liver uptake ([3]; 2 hours between clearing agent and radioactivity) | Non-target organ uptake except liver ([3]; Y-90 radioactivity) | Ratio of DOTA-biotin to MAb-streptavidin at the tumor (MAb-streptavidin) | Blood clearance of precomplexed conjugate [4] | Tumor targeting, high antigen-expressing colon xenograft [5, 6] | Tumor uptake of radioactivity, SW-1222, overall assessment [5, 7] | Ability to clear I-125 LU-10-streptavidin from circulation ([1]; Balb/c mouse, vs galactosylated-HSA-biotin)
CN(CCCCSC1O[C@H](CO)[C@H](O)[C@H](O)[C@H]1O)C(=O)CCCCCN(CCCCCC(=O)N(C)CCCCSC1O[C@H](CO)[C@H](O)[C@H](O)[C@H]1O)C(=O)CCCCCN(CCCCCC(=O)N(CCCCCC(=O)N(C)CCCCSC1O[C@H](CO)[C@H](O)[C@H](O)[C@H]1O)CCCCCC(=O)N(C)CCCCSC1O[C@H](CO)[C@H](O)[C@H](O)[C@H]1O)C(=O)CCCCCN(CCCCCC(=O)N(CCCCCC(=O)N(CCCCCC(=O)N(C)CCCCSC1O[C@H](CO)[C@H](O)[C@H](O)[C@H]1O)CCCCCC(=O)N(C)CCCCSC1O[C@H](CO)[C@H](O)[C@H](O)[C@H]1O)CCCCCC(=O)N(CCCCCC(=O)N(C)CCCCSC1O[C@H](CO)[C@H](O)[C@H](O)[C@H]1O)CCCCCC(=O)N(C)CCCCSC1O[C@H](CO)[C@H](O)[C@H](O)[C@H]1O)C(=O)CCCCCN(CCCCCC(=O)N(CCCCCC(=O)N(CCCCCC(=O)N(CCCCCC(=O)N(C)CCCCSC1O[C@H](CO)[C@H](O)[C@H](O)[C@H]1O)CCCCCC(=O)N(C)CCCCSC1O[C@H](CO)[C@H](O)[C@H](O)[C@H]1O)CCCCCC(=O)N(CCCCCC(=O)N(C)CCCCSC1O[C@H](CO)[C@H](O)[C@H](O)[C@H]1O)CCCCCC(=O)N(C)CCCCSC1O[C@H](CO)[C@H](O)[C@H](O)[C@H]1O)CCCCCC(=O)N(CCCCCC(=O)N(CCCCCC(=O)N(C)CCCCSC1O[C@H](CO)[C@H](O)[C@H](O)[C@H]1O)CCCCCC(=O)N(C)CCCCSC1O[C@H](CO)[C@H](O)[C@H](O)[C@H]1O)CCCCCC(=O)N(CCCCCC(=O)N(C)CCCCSC1O[C@H](CO)[C@H](O)[C@H](O)[C@H]1O)CCCCCC(=O)N(C)CCCCSC1O[C@H](CO)[C@H](O)[C@H](O)[C@H]1O)C(=O)CCCCCNC(=O)CCCC[C@@H]1SC[C@@H]2NC(=O)N[C@@H]21 (stereo partly drawn) [16 galactose-biotin] | less efficient at removing circulating conjugate | significant rebound effect | more effective than the previously optimized dose of (galactose)35 -HSA-(biotin)2 | effective at clearing conjugate | 46 | approximately 10% | about 1 hour | 2 | effective construct for clearing MAb-streptavidin from the circulation | slightly higher | roughly equivalent | slightly higher levels | comparable in all tissues except liver | 2.65 | extremely rapid clearance from the blood | slightly lower | roughly equivalent | 
CN(CCCCSC1O[C@H](CO)[C@H](O)[C@H](O)[C@H]1O)C(=O)CCCCCN(CCCCCC(=O)N(C)CCCCSC1O[C@H](CO)[C@H](O)[C@H](O)[C@H]1O)C(=O)CCCCCN(CCCCCC(=O)N(CCCCCC(=O)N(C)CCCCSC1O[C@H](CO)[C@H](O)[C@H](O)[C@H]1O)CCCCCC(=O)N(C)CCCCSC1O[C@H](CO)[C@H](O)[C@H](O)[C@H]1O)C(=O)CCCCCN(CCCCCC(=O)N(CCCCCC(=O)N(CCCCCC(=O)N(C)CCCCSC1O[C@H](CO)[C@H](O)[C@H](O)[C@H]1O)CCCCCC(=O)N(C)CCCCSC1O[C@H](CO)[C@H](O)[C@H](O)[C@H]1O)CCCCCC(=O)N(CCCCCC(=O)N(C)CCCCSC1O[C@H](CO)[C@H](O)[C@H](O)[C@H]1O)CCCCCC(=O)N(C)CCCCSC1O[C@H](CO)[C@H](O)[C@H](O)[C@H]1O)C(=O)CCCCCNC(=O)CCCC[C@@H]1SC[C@@H]2NC(=O)N[C@@H]21 (stereo partly drawn) [(galactosyl)8 -LC-biotin] |  |  |  |  |  |  |  |  |  |  |  |  |  |  |  |  |  | comparable to galactosylated-HSA-biotin
